# Earlier results in article PMC11243490, “Enzymatic Fructosylation of Phenolic Compounds: A New Alternative for the Development of Antidiabetic Drugs” (Molecules, 2024).
# What was measured:
# CYP2C9 = test system: CYP2C9; design: method as in PMID 27518169; settings: human liver microsomes
# CYP1A2 = test system: CYP1A2; design: method as in PMID 27518169; settings: human liver microsomes
# [1] = design: method as in PMID 30638505, PMID 33992405, doi:10.1016/j.imu.2022.100880; settings: reported properties
# [2] = design: method as in PMID 30638505, PMID 33992405, doi:10.1016/j.imu.2022.100880; settings: reported properties; remark: listed apart in the source
# [3] = reported properties
# [4] = design: method as in PMID 30638505, PMID 33992405, doi:10.1016/j.imu.2022.100880; settings: reported properties; remark: listed apart in the source
# [5] = test system: EGFR, SRC, ESR1, and HSP90AA1 diabetic proteins; design: method as in PMID 37754241; settings: range over EGFR
# [6] = test system: key proteins in type 2 diabetes; design: method as in PMID 32258479; settings: strongest interactions
Compound,DPPH % Free Radical Scavenging Activity [3] [%],Solubility [4] [µg/mL],other results
"O=C(O[C@@H]1Cc2c(O)cc(O)cc2O[C@@H]1c1cc(O)c(O)c(O)c1)c1cc(O)c(O)c(O)c1 [EGCG, epigallocatechin gallate]",,,inhibition of CYP2C9 (CYP2C9): 7.60 µM; inhibition of CYP1A2 (CYP1A2): 8.93 µM
"COc1cc(C=CC(=O)O)ccc1O [FA, 4-hydroxy-3-methoxycinnamic acid]",70.04 ± 2.3,,ABTS % Free Radical Scavenging Activity [1]: 90.69 ± 0.14%; NO % Free Radical Scavenging Activity [2]: 22.21 ± 1.39%
"COc1cc(/C=C/C(=O)OC2(CO)OCC(O)C(O)C2O)ccc1O [MFF, β-D-Fructopyranosyl-β-(2→6)-ferulate]",17.16 ± 0.81,8690 ± 450,ABTS % Free Radical Scavenging Activity [1]: 90.95 ± 0.18%; NO % Free Radical Scavenging Activity [2]: 3.27 ± 1.02%
"O=c1c(-c2ccc(O)cc2)coc2c(C3OC(COC4(CO)OC(CO)C(O)C4O)C(O)C(O)C3O)c(O)ccc12 [MFP, β-D-fructofuranosyl-β-(2→6)-puerarin]",26.2 ± 1.3,16200 ± 1700,
"O=C(CCc1ccc(O)cc1)c1c(O)cc(O)cc1OC1OC(COC2(CO)OC(CO)C(O)C2O)C(O)C(O)C1O [MFPh, β-D-fructofuranosyl-β-(2→6)-phlorizin]",44.56 ± 8.4,30570 ± 100,
"O=C(CCc1ccc(O)cc1)c1c(O)cc(O)cc1O[C@@H]1O[C@H](CO)[C@@H](O)[C@H](O)[C@H]1O [PH, phloretin-2′-β-D-glucopyranoside]",62.13 ± 1.8,1930 ± 30,
"O=c1c(-c2ccc(O)cc2)coc2c([C@@H]3O[C@H](CO)[C@@H](O)[C@H](O)[C@H]3O)c(O)ccc12 [PU, daidzein-8-C-glucoside]",33.3,700 ± 90,
CCCCCc1cc(O)c2c(c1)OC(C)(C)c1ccc(C)cc1-2 [cannabinol],,,free binding energy [5]: -7.44 to -6.38 kcal/mol
OC[C@H]1O[C@@H](Oc2cc3c(O)cc(O)cc3[o+]c2-c2ccc(O)c(O)c2)[C@H](O)[C@@H](O)[C@@H]1O [cyanidin 3-glucoside],,,free binding energies [6]: −7.3 to −6.10
OC[C@H]1O[C@@H](Oc2cc3c(O)cc(O)cc3[o+]c2-c2cc(O)c(O)c(O)c2)[C@H](O)[C@@H](O)[C@@H]1O [delphinidin 3-glucoside],,,free binding energies [6]: −7.3 to −6.10
